# Patent US11959086B2, “Dual transit peptides for targeting polypeptides” (BASF AGRO B.V., priority 2016, dated 2024)
# Experiments:
# Test in all cases: Herbicide injury evaluation of Arabidopsis plants, greenhouse
# Assay type in all cases: in vivo
# [1] = system: transgenic Arabidopsis thaliana, transgene SEQ ID NO 120; details: Table 4, scale 0-100
# [2] = system: Wildtype/non-transgenic Arabidopsis thaliana; details: scale 0-100
# [3] = system: transgenic Arabidopsis thaliana, transgene SEQ ID NO 118; details: scale 0-100
# [4] = system: transgenic Arabidopsis thaliana, transgene SEQ ID NO 117; details: Table 3, scale 0-100
# [5] = system: transgenic Arabidopsis thaliana, transgene SEQ ID NO 121; details: Table 3, scale 0-100
# [6] = system: transgenic Arabidopsis thaliana, transgene SEQ ID NO 128; details: Table 3, scale 0-100
structure (smiles),measurement,setting,value
"CCOC(=O)COc1ncccc1Oc1cc(-n2c(=O)cc(C(F)(F)F)n(C)c2=O)c(F)cc1Cl [S3100, ethyl [3-[2-chloro-4-fluoro-5-(1-methyl-6-trifluoromethyl-2,4-dioxo-1,2,3,4-tetrahydropyrimidin-3-yl)phenoxy]-2-pyridyloxy]acetate]",Herbicide injury evaluation 14 days after herbicide treatment,"[1]; SEQ ID NO 120 J, 50 g ai/ha + 1% MSO",75
same,Herbicide injury evaluation 14 days after herbicide treatment,"[1]; SEQ ID NO 120 J, 100 g ai/ha + 1% MSO",95
same,Herbicide injury evaluation 14 days after herbicide treatment,"[1]; SEQ ID NO 120 J, 200 g ai/ha + 1% MSO",80
same,Herbicide injury evaluation 14 days after herbicide treatment,"[1]; SEQ ID NO 120 M, 50 g ai/ha + 1% MSO",97
same,Herbicide injury evaluation 14 days after herbicide treatment,"[1]; SEQ ID NO 120 M, 100 g ai/ha + 1% MSO",85
same,Herbicide injury evaluation 14 days after herbicide treatment,"[1]; SEQ ID NO 120 M, 200 g ai/ha + 1% MSO",89
same,Herbicide injury evaluation 14 days after herbicide treatment,"[2]; Table 4, 50 g ai/ha + 1% MSO",100
same,Herbicide injury evaluation 14 days after herbicide treatment,"[2]; Table 4, 100 g ai/ha + 1% MSO",100
same,Herbicide injury evaluation 14 days after herbicide treatment,"[2]; Table 4, 200 g ai/ha + 1% MSO",100
same,Herbicide injury evaluation 14 days after herbicide treatment,"[3]; Table 4, SEQ ID NO 118 Q, 50 g ai/ha + 1% MSO",65
same,Herbicide injury evaluation 14 days after herbicide treatment,"[3]; Table 4, SEQ ID NO 118 Q, 100 g ai/ha + 1% MSO",65
same,Herbicide injury evaluation 14 days after herbicide treatment,"[3]; Table 4, SEQ ID NO 118 Q, 200 g ai/ha + 1% MSO",65
same,Herbicide injury evaluation 14 days after herbicide treatment,"[3]; Table 4, SEQ ID NO 118 R, 50 g ai/ha + 1% MSO",60
same,Herbicide injury evaluation 14 days after herbicide treatment,"[3]; Table 4, SEQ ID NO 118 R, 100 g ai/ha + 1% MSO",63
same,Herbicide injury evaluation 14 days after herbicide treatment,"[3]; Table 4, SEQ ID NO 118 R, 200 g ai/ha + 1% MSO",53
"Cc1nn(-c2cc(NS(C)(=O)=O)c(Cl)cc2Cl)c(=O)n1C(F)F [Sulfentrazone, sulfentrazone]",Herbicide injury evaluation 14 days after herbicide treatment,"[2]; Table 3, 280 g ai/ha + 1% MSO",100
same,Herbicide injury evaluation 14 days after herbicide treatment,"[2]; Table 3, 560 g ai/ha + 1% MSO",100
same,Herbicide injury evaluation 14 days after herbicide treatment,"[2]; Table 3, 1120 g ai/ha + 1% MSO",100
same,Herbicide injury evaluation 14 days after herbicide treatment,"[4]; SEQ ID NO 117 C, 280 g ai/ha + 1% MSO",83
same,Herbicide injury evaluation 14 days after herbicide treatment,"[4]; SEQ ID NO 117 C, 560 g ai/ha + 1% MSO",99
same,Herbicide injury evaluation 14 days after herbicide treatment,"[4]; SEQ ID NO 117 C, 1120 g ai/ha + 1% MSO",98
same,Herbicide injury evaluation 14 days after herbicide treatment,"[4]; SEQ ID NO 117 I, 280 g ai/ha + 1% MSO",89
same,Herbicide injury evaluation 14 days after herbicide treatment,"[4]; SEQ ID NO 117 I, 560 g ai/ha + 1% MSO",85
same,Herbicide injury evaluation 14 days after herbicide treatment,"[4]; SEQ ID NO 117 I, 1120 g ai/ha + 1% MSO",98
same,Herbicide injury evaluation 14 days after herbicide treatment,"[5]; SEQ ID NO 121 G, 280 g ai/ha + 1% MSO",100
same,Herbicide injury evaluation 14 days after herbicide treatment,"[5]; SEQ ID NO 121 G, 560 g ai/ha + 1% MSO",100
same,Herbicide injury evaluation 14 days after herbicide treatment,"[5]; SEQ ID NO 121 G, 1120 g ai/ha + 1% MSO",100
same,Herbicide injury evaluation 14 days after herbicide treatment,"[5]; SEQ ID NO 121 H, 280 g ai/ha + 1% MSO",100
same,Herbicide injury evaluation 14 days after herbicide treatment,"[5]; SEQ ID NO 121 H, 560 g ai/ha + 1% MSO",100
same,Herbicide injury evaluation 14 days after herbicide treatment,"[5]; SEQ ID NO 121 H, 1120 g ai/ha + 1% MSO",100
same,Herbicide injury evaluation 14 days after herbicide treatment,"[3]; Table 3, SEQ ID NO 118 Q, 280 g ai/ha + 1% MSO",25
same,Herbicide injury evaluation 14 days after herbicide treatment,"[3]; Table 3, SEQ ID NO 118 Q, 560 g ai/ha + 1% MSO",40
same,Herbicide injury evaluation 14 days after herbicide treatment,"[3]; Table 3, SEQ ID NO 118 Q, 1120 g ai/ha + 1% MSO",48
same,Herbicide injury evaluation 14 days after herbicide treatment,"[3]; Table 3, SEQ ID NO 118 R, 280 g ai/ha + 1% MSO",15
same,Herbicide injury evaluation 14 days after herbicide treatment,"[3]; Table 3, SEQ ID NO 118 R, 560 g ai/ha + 1% MSO",18
same,Herbicide injury evaluation 14 days after herbicide treatment,"[3]; Table 3, SEQ ID NO 118 R, 1120 g ai/ha + 1% MSO",40
same,Herbicide injury evaluation 14 days after herbicide treatment,"[6]; SEQ ID NO 128 D, 280 g ai/ha + 1% MSO",73
same,Herbicide injury evaluation 14 days after herbicide treatment,"[6]; SEQ ID NO 128 D, 560 g ai/ha + 1% MSO",83
same,Herbicide injury evaluation 14 days after herbicide treatment,"[6]; SEQ ID NO 128 D, 1120 g ai/ha + 1% MSO",95
same,Herbicide injury evaluation 14 days after herbicide treatment,"[6]; SEQ ID NO 128 E, 280 g ai/ha + 1% MSO",70
same,Herbicide injury evaluation 14 days after herbicide treatment,"[6]; SEQ ID NO 128 E, 560 g ai/ha + 1% MSO",93
same,Herbicide injury evaluation 14 days after herbicide treatment,"[6]; SEQ ID NO 128 E, 1120 g ai/ha + 1% MSO",95
